Data published in PMC5661635, “Targeting the CXCR4/CXCL12 axis with the peptide antagonist E5 to inhibit breast tumor progression” (Signal Transduction and Targeted Therapy, 2017).
No end group written: not given here.

Experiments:
[1] = tested on: CXCR4; conditions: cited from earlier work
Source text: Nevertheless, challenges still exist in clinical applications. […] In addition, it is known that existing pep ...

[2] = tested on: 4T1 tumors; experiment: 4T1 breast cancer model in BALB/c mice; format: in vivo; conditions: day 33 after inoculation; E5 40 mg kg^-1 s.c. every other day; PTX 8 mg kg^-1 i.p. once a week; n=9
Procedure: For animal experiments, 1×10^6 4T1 cells were orthotopically inoculated into the right fourth mammary fat pat of BALB/c mice. Seven days after inoculation, the mice were randomized in six groups (n=9 for each group): the control group, the E5 (40 mg kg^−1) group, the chemotherapeutic drug groups (cyclophosphamide (CTX, 90 mg kg^−1) or paclitaxel (PTX, 8 mg kg^−1)), and a group consisting of E5 combined with one of the drugs. E5 solution was subcutaneously injected around solid tumors every other day, and drugs were intraperitoneally injected once a week. The control tumor-bearing mice were treated an equal volume of solvent. The tumor sizes were measured every four days with a caliper. Tumor volume was calculated according to the formula: V=(a×b^2)/2, where a and b are the maximal and minimal diameter in millimeters, respectively. On day 33 after cell injection, the mice were killed by cervical dislocation. The tumors and main organs from each group were weighed immediately after dissection and preserved at −80 °C for further analysis.

[3] = in vivo; cited from earlier work
[4] = tested on: multiple acute myeloid leukemia cell lines; conditions: E5 below 30 μM; cited from earlier work
Procedure: (§1) The cytotoxicity of blocking CXCR4 with antagonists depends on the concentration and the cell types. For instance, CXCR4 antagonist BKT140 could induce 15–35% cell death at 4 or 8 μM. When its concentration was high as 20 μM, the cell death rate was about 60%.[35]

[5] = E5 every other day in healthy BALB/c mice; cited from earlier work
Procedure: as §1

[6] = tested on: HUVECs; experiment: CCK-8 cell viability assay; format: cell-based, human; conditions: E5 concentrations up to 100 μM, 24 h
[7] = tested on: 4T1 cells; experiment: Drug sensitivity under CXCL12 stimulus or conditional medium (CCK-8); format: cell-based, murine; conditions: E5 10 μM; MS-5 conditional medium or medium with 200 ng ml^-1 CXCL12; paclitaxel 4, 20, 100 nM, elemene 10, 20, 40 mg l^-1, cisplatin 2, 4, 8 μM; 24 h
Procedure: Briefly, 1×10^4 4T1 cells were pre-seeded in 96-well culture plates and incubated overnight. Then, the cells were treated with 10 μM E5 in serum-free medium for 2 h, followed by the addition of either complete medium with 200 ng ml^−1 CXCL12 or conditional medium obtained from 48 h of incubation with MS-5 cells for an additional 4 h of treatment. After that, the cells were incubated the chemotherapeutic drugs paclitaxel (4, 20 and 100 nM), elemene (10, 20 and 40 mg l^−1), or cisplatin (2, 4 and 8 μM) for an additional 24 h. The 4T1 cell viability was analyzed using the CCK-8 assay. The absorbance value of 4T1 cells in the absence of drug treatment was set as 100%.

For `c1cc(CN2CCCNCCNCCCNCC2)ccc1CN1CCCNCCNCCCNCC1` [AMD3100, Plerixafor], the agonist activity [1] is listed as “weak partial agonist activity”.

For `CC(=O)O[C@H]1C(=O)[C@@]2(C)[C@H]([C@H](OC(=O)c3ccccc3)[C@]3(O)C[C@H](OC(=O)[C@H](O)[C@@H](NC(=O)c4ccccc4)c4ccccc4)C(C)=C1C3(C)C)[C@]1(OC(C)=O)CO[C@@H]1C[C@@H]2O` [PTX, paclitaxel], the “effect on tumor weight compared with the control group” value [2] was “did not show a significant inhibitory effect”.

For LY2510924, the half-life [3] is given as 3 to 5 h.

In the case of GGRSFFLLRRIQGCRFRNTVDD [E5], the “direct induction of cell death” value [4] is given as “did not induce cell death directly”, the “side effects (organs weight, serum clinical parameters, H&E of heart, kidney, lung, spleen)” value [5] is given as “did not show detectable side effects” and the “cytotoxicity to HUVECs” value [6] is given as “did not show obvious cytotoxicity”. The “effect on cytotoxic effects of paclitaxel, elemene and cisplatin to 4T1” value [7] was “could enhance the cytotoxic effects”.
